Assay results as given in the NIST ThermoML archive (doi:10.1016/j.jct.2015.11.012).
± gives the expanded uncertainty stated by the source.

Test: xn = mol fraction of the nth substance listed
Settings: 100 kPa, Liquid; for viscosity: Capillary tube (Ostwald / Ubbelohde) method; for speed of sound: Frequency=2 MHz, Linear variable-path acoustic interferometer; for mass density: Vibrating tube method

Nc1cccc(Cl)c1 [3-chlorobenzenamine] + NCCO
Settings | mass density [kg/m3] | speed of sound [m/s] | viscosity [mPa·s]
303.15 K, x1 = 0.0857 | 1037.07 ± 4 | 1689 ± 10 | 13.56 ± 1
303.15 K, x1 = 0.1749 | 1063.03 ± 4 | 1674.4 ± 10 | 12.66 ± 1
303.15 K, x1 = 0.2679 | 1086.86 ± 4 | 1658.9 ± 10 | 11.72 ± 1
303.15 K, x1 = 0.3619 | 1108.19 ± 4 | 1642.4 ± 10 | 10.77 ± 1
303.15 K, x1 = 0.4597 | 1127.88 ± 4 | 1624.3 ± 9.9 | 9.773 ± 1
303.15 K, x1 = 0.5607 | 1145.96 ± 4 | 1604.9 ± 9.8 | 8.747 ± 1
303.15 K, x1 = 0.6649 | 1162.61 ± 4 | 1584.1 ± 9.7 | 7.685 ± 1
303.15 K, x1 = 0.7726 | 1177.97 ± 4 | 1562.3 ± 9.5 | 6.586 ± 1
303.15 K, x1 = 0.8835 | 1192.12 ± 4 | 1540.1 ± 9.4 | 5.451 ± 1
303.15 K, x1 = 1 | 1205.32 ± 4 | 1517.5 ± 9.3 | 4.255 ± 1
308.15 K, x1 = 0.0857 | 1032.99 ± 4 | 1673.4 ± 10 | 11.04 ± 1
308.15 K, x1 = 0.1749 | 1058.89 ± 4 | 1659.2 ± 10 | 10.35 ± 1
308.15 K, x1 = 0.2679 | 1082.69 ± 4 | 1643.1 ± 10 | 9.621 ± 1
308.15 K, x1 = 0.3619 | 1103.96 ± 4 | 1626 ± 9.9 | 8.885 ± 1
308.15 K, x1 = 0.4597 | 1123.59 ± 4 | 1607.5 ± 9.8 | 8.117 ± 1
308.15 K, x1 = 0.5607 | 1141.65 ± 4 | 1588.1 ± 9.7 | 7.322 ± 1
308.15 K, x1 = 0.6649 | 1158.22 ± 4 | 1568.1 ± 9.6 | 6.5 ± 1
308.15 K, x1 = 0.7726 | 1173.53 ± 4 | 1547.2 ± 9.4 | 5.649 ± 1
308.15 K, x1 = 0.8835 | 1187.62 ± 4 | 1525.2 ± 9.3 | 4.77 ± 1
308.15 K, x1 = 1 | 1200.75 ± 4 | 1501.2 ± 9.2 | 3.842 ± 1
313.15 K, x1 = 0.0857 | 1029.02 ± 4 | 1658.8 ± 10 | 9.049 ± 1
313.15 K, x1 = 0.1749 | 1054.84 ± 4 | 1643.8 ± 10 | 8.509 ± 1
313.15 K, x1 = 0.2679 | 1078.52 ± 4 | 1626.5 ± 9.9 | 7.944 ± 1
313.15 K, x1 = 0.3619 | 1099.7 ± 4 | 1608.2 ± 9.8 | 7.37 ± 1
313.15 K, x1 = 0.4597 | 1119.25 ± 4 | 1588.8 ± 9.7 | 6.771 ± 1
313.15 K, x1 = 0.5607 | 1137.2 ± 4 | 1568.9 ± 9.6 | 6.151 ± 1
313.15 K, x1 = 0.6649 | 1153.72 ± 4 | 1548.6 ± 9.4 | 5.51 ± 1
313.15 K, x1 = 0.7726 | 1168.97 ± 4 | 1527.7 ± 9.3 | 4.846 ± 1
313.15 K, x1 = 0.8835 | 1182.98 ± 4 | 1505.5 ± 9.2 | 4.157 ± 1
313.15 K, x1 = 1 | 1196.02 ± 4 | 1480.3 ± 9 | 3.43 ± 1
318.15 K, x1 = 0.0857 | 1024.4 ± 4 | 1642 ± 10 | 7.182 ± 1
318.15 K, x1 = 0.1749 | 1050.2 ± 4 | 1627.5 ± 9.9 | 6.785 ± 1
318.15 K, x1 = 0.2679 | 1073.86 ± 4 | 1610.2 ± 9.8 | 6.368 ± 1
318.15 K, x1 = 0.3619 | 1095.02 ± 4 | 1591.7 ± 9.7 | 5.944 ± 1
318.15 K, x1 = 0.4597 | 1114.53 ± 4 | 1572.2 ± 9.6 | 5.501 ± 1
318.15 K, x1 = 0.5607 | 1132.47 ± 4 | 1552.5 ± 9.5 | 5.043 ± 1
318.15 K, x1 = 0.6649 | 1149 ± 4 | 1532.6 ± 9.3 | 4.568 ± 1
318.15 K, x1 = 0.7726 | 1164.23 ± 4 | 1512.3 ± 9.2 | 4.075 ± 1
318.15 K, x1 = 0.8835 | 1178.23 ± 4 | 1490.5 ± 9.1 | 3.565 ± 1
318.15 K, x1 = 1 | 1191.25 ± 4 | 1464.8 ± 8.9 | 3.022 ± 1
